In publication PMC11356900, “Synthesis, Structural Properties and Biological Activities of Novel Hydrazones of 2-, 3-, 4-Iodobenzoic Acid” (Molecules, 2024):
≈ marks a conversion by molar mass, not a printed value. Like-named read-outs stand apart in the source and are kept apart here.

Legend:
[1] = tested on: Staphylococcus epidermidis ATCC 12228; assay: Broth microdilution MIC/MBC; conditions: ATCC12228
[2] = tested on: Bacillus subtilis ATCC 6633; assay: Broth microdilution MIC/MBC; conditions: ATCC6633
[3] = tested on: Gram-positive bacteria; assay: Broth microdilution, summary over reference Gram-positive bacteria; type: cell-based; conditions: for antibacterial activity in words: reference Gram-positive bacteria / studied bacteria
Procedure, shortened: (§1)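 Following EUCAST and CLSI guidance, growth inhibition is measured in broth across final compound levels of 1000 down to 0.488 µg/mL. Cidal endpoints come from spotting each well onto agar; three independent repeats.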

[4] = tested on: Candida glabrata ATCC 90030; assay: Broth microdilution MIC/MFC; type: cell-based; conditions: Nakaseomyces glabratus; for MFC: ATCC90030, read-out: MFC; for MIC: ATCC90030, read-out: MIC
Procedure, shortened: as §1

[5] = tested on: Candida albicans ATCC 10231; assay: Broth microdilution MIC/MFC; type: cell-based; conditions: for MFC: ATCC10231, read-out: MFC; for MIC: ATCC10231, read-out: MIC
Procedure, shortened: as §1

[6] = tested on: Candida albicans ATCC 2091; assay: Broth microdilution MIC/MFC; type: cell-based; conditions: for MFC: ATCC2091, read-out: MFC; for MIC: ATCC2091, read-out: MIC
Procedure, shortened: as §1

[7] = tested on: Candida krusei ATCC 14243; assay: Broth microdilution MIC/MFC; type: cell-based; conditions: Pichia kudriavzevii; for MFC: ATCC14243, read-out: MFC; for MIC: ATCC14243, read-out: MIC
Procedure, shortened: as §1

[8] = tested on: Candida parapsilosis ATCC 22019; assay: Broth microdilution MIC/MFC; type: cell-based; conditions: Lodderomyces parapsilosis; for MFC: ATCC22019, read-out: MFC; for MIC: ATCC22019, read-out: MIC
Procedure, shortened: as §1

[9] = tested on: Klebsiella pneumoniae ATCC 13883; assay: Broth microdilution MIC/MBC; conditions: ATCC13883
[10] = tested on: Pseudomonas aeruginosa ATCC 9027; assay: Broth microdilution MIC/MBC; conditions: ATCC9027
[11] = range over the reference Gram-positive bacteria
[12] = range over the reference Gram-positive bacteria, read-out: MBC
[13] = range over the reference Gram-positive bacteria, read-out: MIC

SMILES | MBC [1] | MIC [1] | MBC [2] | MIC [2] | MBC/MIC [3, 11] | MBC [3, 12] | MIC [3, 13] | antibacterial activity in words [3] | MFC [4] | MIC [4] | MFC [5] | MIC [5] | MFC [6] | MIC [6] | MFC [7] | MIC [7] | MFC [8] | MIC [8] | MIC [9] | MIC [10] | also measured
O=C(N/N=C/c1cc(I)cc(I)c1O)c1ccccc1I [Compound 14, N-[(3,5-diiodo-2-hydroxyphenyl)methylidene]-2-iodobenzohydrazide] | 250 µg/mL (≈ 405 µM) | 125 µg/mL (≈ 202 µM) | 500 µg/mL (≈ 809 µM) | 500 µg/mL (≈ 809 µM) | 1–4 | 125 to 1000 µg/mL (≈ 202 to 1620 µM) | 62.5 to 500 µg/mL (≈ 101 to 809 µM) | good or moderate | 1000 µg/mL (≈ 1620 µM) | 250 µg/mL (≈ 405 µM) | 1000 µg/mL (≈ 1620 µM) | 500 µg/mL (≈ 809 µM) | > 1000 µg/mL | 500 µg/mL (≈ 809 µM) | > 1000 µg/mL | 500 µg/mL (≈ 809 µM) | > 1000 µg/mL | 1000 µg/mL (≈ 1620 µM) |  |  | 
O=C(N/N=C/c1cc(Cl)cc(I)c1O)c1cccc(I)c1 [Compound 20, N-[(5-chloro-2-hydroxy-3-iodophenyl)methylidene]-3-iodobenzohydrazide] | 7.81 µg/mL (≈ 14.8 µM) | 1.95 µg/mL (≈ 3.7 µM) | 31.2 µg/mL (≈ 59.4 µM) | 7.81 µg/mL (≈ 14.8 µM) | 1–4 |  |  | very strong (very strong bioactivity as a MIC < 10 µg/mL) | > 1000 µg/mL | 125 µg/mL (≈ 237 µM) | > 1000 µg/mL | 250 µg/mL (≈ 475 µM) | > 1000 µg/mL | 500 µg/mL (≈ 950 µM) | > 1000 µg/mL | 500 µg/mL (≈ 950 µM) | > 1000 µg/mL | 125 µg/mL (≈ 237 µM) | 500 µg/mL (≈ 950 µM) | 500 µg/mL (≈ 950 µM) | MBC [9]: > 1000 µg/mL; MBC/MIC [9]: > 2; MBC [3]: 3.91 to 62.5 µg/mL (≈ 7.43 to 119 µM); MIC [3]: 1.95 to 7.81 µg/mL (≈ 3.7 to 14.8 µM); MBC [10]: > 1000 µg/mL; MBC/MIC [10]: > 2
O=C(N/N=C/c1cc(Br)cc(Br)c1O)c1cccc(I)c1 [Compound 21, N-[(3,5-dibromo-2-hydroxyphenyl)methylidene]-3-iodobenzohydrazide] | 31.2 µg/mL (≈ 59.6 µM) | 7.81 µg/mL (≈ 14.9 µM) | 31.2 µg/mL (≈ 59.6 µM) | 7.81 µg/mL (≈ 14.9 µM) | 1–4 |  |  | strong or very strong | > 1000 µg/mL | 125 µg/mL (≈ 239 µM) | > 1000 µg/mL | 250 µg/mL (≈ 477 µM) | > 1000 µg/mL | 500 µg/mL (≈ 954 µM) | > 1000 µg/mL | 500 µg/mL (≈ 954 µM) | > 1000 µg/mL | 250 µg/mL (≈ 477 µM) | > 1000 µg/mL | > 1000 µg/mL | MBC [3]: 3.91 to 62.5 µg/mL (≈ 7.46 to 119 µM); MIC [3]: 3.91 to 15.6 µg/mL (≈ 7.46 to 29.8 µM)
O=C(N/N=C/c1cc(Cl)cc(I)c1O)c1ccc(I)cc1 [Compound 27, N-[(5-chloro-2-hydroxy-3-iodophenyl)methylidene]-4-iodobenzohydrazide] | 31.2 µg/mL (≈ 59.4 µM) | 31.2 µg/mL (≈ 59.4 µM) | 500 µg/mL (≈ 950 µM) | 125 µg/mL (≈ 237 µM) | 1–4 | 31.2 to 500 µg/mL (≈ 59.4 to 950 µM) | 31.2 to 125 µg/mL (≈ 59.4 to 237 µM) | good (good bioactivity as a MIC in the range 26 – 125 µg/mL) | 62.5 µg/mL (≈ 119 µM) | 31.2 µg/mL (≈ 59.4 µM) | 31.2 µg/mL (≈ 59.4 µM) | 15.6 µg/mL (≈ 29.7 µM) | 62.5 µg/mL (≈ 119 µM) | 62.5 µg/mL (≈ 119 µM) | 62.5 µg/mL (≈ 119 µM) | 62.5 µg/mL (≈ 119 µM) | 62.5 µg/mL (≈ 119 µM) | 31.2 µg/mL (≈ 59.4 µM) | 500 µg/mL (≈ 950 µM) | 1000 µg/mL (≈ 1900 µM) | MBC [9]: > 1000 µg/mL; MBC/MIC [9]: > 2; MBC [10]: > 1000 µg/mL; MBC/MIC [10]: > 1
